Data: the NIST ThermoML archive (doi:10.1016/j.jct.2016.07.032)

Experiments:
[1] = xn = mol fraction of the nth substance listed; details: 101.3 kPa, Liquid; for speed of sound: Frequency=3 MHz, Sing-around technique in a fixed-path interferometer; for mass density: Vibrating tube method
[2] = refractive index (Na D-line) (dimensionless); xn = mol fraction of the nth substance listed; details: 101.3 kPa, Liquid, Standard Abbe refractometry

CCOc1ccccc1 [ethoxybenzene] + C1CCOC1
Details | mass density, 298 K [kg/m3] | mass density, 303 K [kg/m3] | mass density, 308 K [kg/m3] | refractive index, 298 K | refractive index, 303 K | refractive index, 308 K | speed of sound, 298 K [m/s] | speed of sound, 303 K [m/s] | speed of sound, 308 K [m/s]
[1], x1 = 0.031 | 886 | 883 | 878 | – | – | – | 1279 | 1255 | 1230
[1], x1 = 0.072 | 892 | 888 | 883 | – | – | – | 1281 | 1256 | 1231
[1], x1 = 0.117 | 897 | 893 | 888 | – | – | – | 1283 | 1258 | 1233
[1], x1 = 0.197 | 905 | 901 | 897 | – | – | – | 1287 | 1262 | 1237
[1], x1 = 0.246 | 910 | 906 | 902 | – | – | – | 1289 | 1265 | 1241
[1], x1 = 0.326 | 918 | 913 | 909 | – | – | – | 1295 | 1271 | 1247
[1], x1 = 0.492 | 931 | 927 | 922 | – | – | – | 1310 | 1287 | 1264
[1], x1 = 0.695 | 944 | 940 | 935 | – | – | – | 1332 | 1309 | 1287
[1], x1 = 0.899 | 955 | 951 | 946 | – | – | – | 1356 | 1334 | 1314
[1], x1 = 1 | 960 | 955 | 951 | – | – | – | 1369 | 1349 | 1329
[2], x1 = 0.031 | – | – | – | 1.41 | 1.408 | 1.405 | – | – | –
[2], x1 = 0.072 | – | – | – | 1.417 | 1.414 | 1.412 | – | – | –
[2], x1 = 0.117 | – | – | – | 1.424 | 1.422 | 1.419 | – | – | –
[2], x1 = 0.197 | – | – | – | 1.436 | 1.433 | 1.43 | – | – | –
[2], x1 = 0.246 | – | – | – | 1.443 | 1.44 | 1.437 | – | – | –
[2], x1 = 0.326 | – | – | – | 1.453 | 1.45 | 1.447 | – | – | –
[2], x1 = 0.492 | – | – | – | 1.472 | 1.469 | 1.466 | – | – | –
[2], x1 = 0.695 | – | – | – | 1.49 | 1.487 | 1.483 | – | – | –
[2], x1 = 0.899 | – | – | – | 1.502 | 1.499 | 1.494 | – | – | –
[2], x1 = 1 | – | – | – | 1.505 | 1.503 | 1.499 | – | – | –
